Holding throughout (assay type): biochemical
The target in one assay is SIK1 (Homo sapiens, UniProt P57059). Kind of assay: Enzymatic activity assay SIK1, RapidFire mass spectrometry (phosphorylation of CHK-peptide). As to conditions: RapidFire MS, inhibition of SIK1; read-out: SIK1 RF IC50. In short, it runs like this: (§1)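 Human SIK1/2/3, 5/0.5/1.5 nM; 12.5 mM HEPES pH 7.0, 10 mM Mg acetate, 0.005% BSA. 30 min cpd pre-inc, + CHK-peptide (10 μM soln) + ATP (100 μM soln), 45 min RT. Formic acid stop; RF-MS phospho ratio; IC50.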

Another assay has as its target SIK3 (Homo sapiens, UniProt Q9Y2K2). Kind of assay: Enzymatic activity assay SIK3, RapidFire mass spectrometry (phosphorylation of CHK-peptide). As to conditions: RapidFire MS, inhibition of SIK3; read-out: SIK3 RF IC50. In short, it runs like this: as §1
The next assay has as its target SIK2 (Homo sapiens, UniProt Q9H0K1). Kind of assay: Enzymatic activity assay SIK2, RapidFire mass spectrometry (phosphorylation of CHK-peptide). As to conditions: RapidFire MS, inhibition of SIK2; read-out: SIK2 RF IC50. The procedure, abridged: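 Read-out is the summed phospho-species fraction of CHK-peptide by RapidFire mass spectrometry, normalized between DMSO and 1 μM YKL-05-099. The reaction used 0.5 nM SIK2, 100 μM ATP and 10 μM peptide solutions in HEPES pH 7.0/10 mM magnesium acetate for 45 min at ambient temperature.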

SIK2, sequence (Q9H0K1 whole entry): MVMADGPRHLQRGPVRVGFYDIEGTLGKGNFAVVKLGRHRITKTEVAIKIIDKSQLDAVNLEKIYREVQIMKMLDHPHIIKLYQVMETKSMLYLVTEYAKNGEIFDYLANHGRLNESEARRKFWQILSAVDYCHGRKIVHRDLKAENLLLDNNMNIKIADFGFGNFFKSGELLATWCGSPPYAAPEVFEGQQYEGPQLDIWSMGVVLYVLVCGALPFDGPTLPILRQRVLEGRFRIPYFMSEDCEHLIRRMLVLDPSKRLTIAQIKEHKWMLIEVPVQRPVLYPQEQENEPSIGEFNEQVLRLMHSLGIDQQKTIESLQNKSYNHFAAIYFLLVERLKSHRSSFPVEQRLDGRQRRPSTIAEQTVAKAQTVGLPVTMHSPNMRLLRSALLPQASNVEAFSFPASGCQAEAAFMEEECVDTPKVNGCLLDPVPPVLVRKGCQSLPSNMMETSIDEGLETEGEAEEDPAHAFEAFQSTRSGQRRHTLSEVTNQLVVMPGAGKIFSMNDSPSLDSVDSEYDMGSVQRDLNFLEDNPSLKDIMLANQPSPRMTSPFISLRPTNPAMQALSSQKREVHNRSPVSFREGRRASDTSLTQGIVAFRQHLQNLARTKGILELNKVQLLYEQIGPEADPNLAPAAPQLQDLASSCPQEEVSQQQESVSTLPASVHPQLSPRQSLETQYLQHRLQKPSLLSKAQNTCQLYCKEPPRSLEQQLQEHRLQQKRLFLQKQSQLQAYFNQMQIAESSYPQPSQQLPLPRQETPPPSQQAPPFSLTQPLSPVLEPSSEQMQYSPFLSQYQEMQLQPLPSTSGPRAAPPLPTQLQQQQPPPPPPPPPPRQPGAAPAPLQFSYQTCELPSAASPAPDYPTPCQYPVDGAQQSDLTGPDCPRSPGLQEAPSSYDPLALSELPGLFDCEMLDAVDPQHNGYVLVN
SIK1, sequence (P57059 whole entry): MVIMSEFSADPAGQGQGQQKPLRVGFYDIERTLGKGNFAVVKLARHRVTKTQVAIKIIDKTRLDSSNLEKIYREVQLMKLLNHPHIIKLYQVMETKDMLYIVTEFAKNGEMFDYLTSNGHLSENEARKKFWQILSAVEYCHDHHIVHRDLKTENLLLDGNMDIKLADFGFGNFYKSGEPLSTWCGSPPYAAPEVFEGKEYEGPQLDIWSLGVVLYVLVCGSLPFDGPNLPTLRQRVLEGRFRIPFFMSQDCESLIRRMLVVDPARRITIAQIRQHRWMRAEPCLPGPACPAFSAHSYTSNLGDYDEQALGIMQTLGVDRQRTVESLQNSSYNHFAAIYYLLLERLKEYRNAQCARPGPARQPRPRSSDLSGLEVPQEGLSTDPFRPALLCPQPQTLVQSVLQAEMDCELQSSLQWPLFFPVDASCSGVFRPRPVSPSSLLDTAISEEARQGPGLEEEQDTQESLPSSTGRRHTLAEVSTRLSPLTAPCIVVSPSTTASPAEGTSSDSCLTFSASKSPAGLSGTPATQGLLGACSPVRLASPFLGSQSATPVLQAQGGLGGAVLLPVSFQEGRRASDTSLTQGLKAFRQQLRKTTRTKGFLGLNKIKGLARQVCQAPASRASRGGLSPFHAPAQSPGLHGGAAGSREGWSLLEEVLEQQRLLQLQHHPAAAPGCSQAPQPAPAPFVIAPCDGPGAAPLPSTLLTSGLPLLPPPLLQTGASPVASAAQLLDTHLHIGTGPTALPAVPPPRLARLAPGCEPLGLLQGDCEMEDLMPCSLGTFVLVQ
SIK3, sequence (Q9Y2K2 whole entry): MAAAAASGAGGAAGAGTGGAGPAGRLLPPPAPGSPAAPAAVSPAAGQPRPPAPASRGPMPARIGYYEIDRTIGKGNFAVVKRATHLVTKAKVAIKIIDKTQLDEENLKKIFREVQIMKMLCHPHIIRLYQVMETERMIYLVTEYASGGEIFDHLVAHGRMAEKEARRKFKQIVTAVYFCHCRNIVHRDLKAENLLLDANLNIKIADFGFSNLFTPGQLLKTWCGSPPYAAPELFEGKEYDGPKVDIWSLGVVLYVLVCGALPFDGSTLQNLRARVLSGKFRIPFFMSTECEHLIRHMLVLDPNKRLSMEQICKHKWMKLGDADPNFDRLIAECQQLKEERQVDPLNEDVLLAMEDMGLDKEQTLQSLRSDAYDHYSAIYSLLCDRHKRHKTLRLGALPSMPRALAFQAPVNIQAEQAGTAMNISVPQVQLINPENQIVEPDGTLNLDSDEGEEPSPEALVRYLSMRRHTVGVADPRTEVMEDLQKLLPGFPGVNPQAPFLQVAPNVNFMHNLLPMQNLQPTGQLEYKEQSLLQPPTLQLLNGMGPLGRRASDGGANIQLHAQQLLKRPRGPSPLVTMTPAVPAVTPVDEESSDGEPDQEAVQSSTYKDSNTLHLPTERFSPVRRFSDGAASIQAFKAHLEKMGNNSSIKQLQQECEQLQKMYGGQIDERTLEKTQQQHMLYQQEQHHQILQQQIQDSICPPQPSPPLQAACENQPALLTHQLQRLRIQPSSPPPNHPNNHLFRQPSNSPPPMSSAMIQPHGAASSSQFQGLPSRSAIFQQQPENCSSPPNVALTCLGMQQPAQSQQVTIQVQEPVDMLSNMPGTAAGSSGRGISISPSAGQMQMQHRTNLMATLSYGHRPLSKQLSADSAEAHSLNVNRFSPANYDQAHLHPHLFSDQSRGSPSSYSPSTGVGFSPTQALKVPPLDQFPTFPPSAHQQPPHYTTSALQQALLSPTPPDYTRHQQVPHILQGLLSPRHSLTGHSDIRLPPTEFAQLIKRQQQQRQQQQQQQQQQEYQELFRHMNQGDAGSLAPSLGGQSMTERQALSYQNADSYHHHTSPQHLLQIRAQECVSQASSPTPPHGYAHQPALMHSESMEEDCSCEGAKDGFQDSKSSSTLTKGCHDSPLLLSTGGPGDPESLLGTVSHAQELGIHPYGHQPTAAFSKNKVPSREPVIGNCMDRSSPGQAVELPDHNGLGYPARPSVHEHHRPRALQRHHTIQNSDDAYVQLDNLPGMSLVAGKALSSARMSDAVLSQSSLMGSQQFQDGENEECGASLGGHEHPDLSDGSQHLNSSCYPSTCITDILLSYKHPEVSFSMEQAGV

In the case of `Cc1ccc(Nc2ccc3c(c2)ncn3-c2ccc(C(C)O)c(N3CCC4(C3)CC4(F)F)n2)nn1` (stereo not drawn) [Example 299, 1-[2-(2,2-difluoro-5-azaspiro[2.4]heptan-5-yl)-6-[5-[(6-methylpyridazin-3-yl)amino]benzimidazol-1-yl]-3-pyridyl]ethanol], the IC50 (in general, the concentration at which inhibition is half-maximal) on SIK1 came out at 273 nM; at SIK3, 0.7 nM; on SIK2 it was 2.4 nM.

In the case of `Cc1ccc(Nc2cc3ncn(-c4ccc([C@H](C)O)c(-n5nc(C(F)F)cc5C)n4)c3cc2F)nn1` [Example 301, (1S)-1-[2-[3-(difluoromethyl)-5-methyl-pyrazol-1-yl]-6-[6-fluoro-5-[(6-methylpyridazin-3-yl)amino]benzimidazol-1-yl]-3-pyridyl]ethanol], the IC50 at SIK1 was 664 nM; at SIK3 it was 2 nM; at SIK2, 3.5 nM.

As for `Cc1ccc(Nc2cc3ncn(-c4ccc(C(C)O)c(-c5cn(CC(F)(F)F)nc5C)n4)c3cc2F)nn1` (stereo not drawn) [Example 302, 1-[6-[6-fluoro-5-[(6-methylpyridazin-3-yl)amino]benzimidazol-1-yl]-2-[3-methyl-1-(2,2,2-trifluoroethyl)pyrazol-4-yl]-3-pyridyl]ethanol], the values for the IC50 on SIK1, on SIK3 and at SIK2 were 409 nM, 1.1 nM and 0.7 nM, respectively.

As to `Cc1ccc(Nc2ccc3c(c2)ncn3-c2ccc(C(C)O)c(-n3nc(C(F)F)cc3C#N)n2)nn1` (stereo not drawn) [Example 303, 5-(difluoromethyl)-2-[3-(1-hydroxyethyl)-6-[5-[(6-methylpyridazin-3-yl)amino]benzimidazol-1-yl]-2-pyridyl]pyrazole-3-carbonitrile], the IC50 on SIK1 was determined as 30 nM; at SIK3 it was 0.4 nM; on SIK2 it was 0.4 nM.

`Cc1cc(C#N)nn1-c1nc(-n2cnc3cc(Nc4ccc(C5CCCN5C5COC5)nn4)ccc32)ccc1C(C)O` (stereo not drawn) [Example 304, 1-[3-(1-hydroxyethyl)-6-[5-[[6-[1-(oxetan-3-yl)pyrrolidin-2-yl]pyridazin-3-yl]amino]benzimidazol-1-yl]-2-pyridyl]-5-methyl-pyrazole-3-carbonitrile]: the IC50 at SIK1 is 273 nM; on SIK3, 37.2 nM; at SIK2 it was 95.4 nM.

Turning to `Cc1ccc(Nc2ccc3c(c2)ncn3-c2ccc(C(C)O)c(-n3nc(C#N)c4c3C(F)(F)CNC4)n2)nn1` (stereo not drawn) [Example 305, 7,7-difluoro-1-[3-(1-hydroxyethyl)-6-[5-[(6-methylpyridazin-3-yl)amino]benzimidazol-1-yl]-2-pyridyl]-5,6-dihydro-4~{H}-pyrazolo[4,3-c]pyridine-3-carbonitrile], the half-maximal inhibitory concentration (IC50) amounted to 155 nM at SIK1, 2.1 nM at SIK3 and 1.7 nM on SIK2.

On to `Cc1ccc(Nc2ccc3c(c2)ncn3-c2ccc(C(C)O)c(-n3nc(C#N)cc3C(F)F)n2)nn1` (stereo not drawn) [Example 306, 5-(difluoromethyl)-1-[3-(1-hydroxyethyl)-6-[5-[(6-methylpyridazin-3-yl)amino]benzimidazol-1-yl]-2-pyridyl]pyrazole-3-carbonitrile], for which the IC50 at SIK1 was determined as 208 nM; at SIK3, 0.7 nM; on SIK2, 1.6 nM.

Regarding `Cc1cc(C(F)F)nn1-c1nc(-n2cnc3cc(Nc4cccnn4)c(F)cc32)ccc1[C@H](C)O` [Example 307, (1S)-1-[2-[3-(difluoromethyl)-5-methyl-pyrazol-1-yl]-6-[6-fluoro-5-(pyridazin-3-ylamino)benzimidazol-1-yl]-3-pyridyl]ethanol], the IC50 at SIK1 worked out at 679 nM; on SIK3, 2.8 nM; on SIK2 it was 7.8 nM.

On to `Cc1ccc(Nc2ccc3c(c2)ncn3-c2ccc(C(C)O)c(-c3nn(CC(F)(F)F)nc3C)n2)nn1` (stereo not drawn) [Example 308, 1-[6-[5-[(6-methylpyridazin-3-yl)amino]benzimidazol-1-yl]-2-[5-methyl-2-(2,2,2-trifluoroethyl)triazol-4-yl]-3-pyridyl]ethanol], for which the results for the IC50 at SIK1, on SIK3 and at SIK2 were 58 nM, 0.4 nM and 0.4 nM, respectively.

Turning to `Cc1ccc(Nc2ccc3c(c2)ncn3-c2ccc(C(C)O)c(-n3nc(C#N)c(C)c3C)n2)nn1` (stereo not drawn) [Example 309, 1-[3-(1-hydroxyethyl)-6-[5-[(6-methylpyridazin-3-yl)amino]benzimidazol-1-yl]-2-pyridyl]-4,5-dimethyl-pyrazole-3-carbonitrile], the IC50 on SIK1 is 27 nM; at SIK3, 0.4 nM; on SIK2 it was 0.3 nM.

As for `Cc1cc(C#N)nn1-c1nc(-n2cnc3cc(Nc4nncc5c4OCCN5C)ccc32)ccc1C(C)O` (stereo not drawn) [Example 310, 1-[3-(1-hydroxyethyl)-6-[5-[(4-methyl-2,3-dihydropyridazino[4,5-b][1,4]oxazin-8-yl)amino]benzimidazol-1-yl]-2-pyridyl]-5-methyl-pyrazole-3-carbonitrile], the IC50 was determined as 93 nM at SIK1, 0.5 nM at SIK3 and 1.1 nM at SIK2.

Turning to `Cc1ccc(Nc2ccc3c(c2)ncn3-c2ccc(C(C)O)c(-c3nnn(CC(F)(F)F)c3C)n2)nn1` (stereo not drawn) [Example 311, 1-[6-[5-[(6-methylpyridazin-3-yl)amino]benzimidazol-1-yl]-2-[5-methyl-1-(2,2,2-trifluoroethyl)triazol-4-yl]-3-pyridyl]ethanol], the IC50 amounted to 17 nM at SIK1, 0.3 nM at SIK3 and 0.3 nM on SIK2.

Take `Cc1cc(C#N)nn1-c1nc(-n2cnc3cc(N4CCCC4C(=O)N(C)C)ccc32)ccc1C(C)O` (stereo not drawn) [Example 312, 1-[1-[6-(3-cyano-5-methyl-pyrazol-1-yl)-5-(1-hydroxyethyl)-2-pyridyl]benzimidazol-5-yl]-N,N-dimethyl-pyrrolidine-2-carboxamide]: the IC50 at SIK1 stood at 250 nM; at SIK3, 85.6 nM; at SIK2, 79.6 nM.

Take `Cc1ccc(Nc2ccc3c(c2)ncn3-c2ccc(C(C)O)c(-c3cn(CC(F)F)nc3C)n2)nn1` (stereo not drawn) [Example 313, 1-[2-[1-(2,2-difluoroethyl)-3-methyl-pyrazol-4-yl]-6-[5-[(6-methylpyridazin-3-yl)amino]benzimidazol-1-yl]-3-pyridyl]ethanol]: the IC50 on SIK1 was determined as 138 nM; on SIK3 it was 1.4 nM; on SIK2, 1.1 nM.

Consider `Cc1ccc(Nc2cc3c(cc2F)ncn3-c2ccc(CO)c(-n3nc(C#N)cc3C)n2)nn1` [Example 314, 1-[6-[5-fluoro-6-[(6-methylpyridazin-3-yl)amino]benzimidazol-1-yl]-3-(hydroxymethyl)-2-pyridyl]-5-methyl-pyrazole-3-carbonitrile], for which the half-maximal inhibitory concentration (IC50) at SIK1 worked out at 70 nM; on SIK3, 65.1 nM; on SIK2, 52.4 nM.

For `Cc1ccc(Nc2ccc3c(c2)ncn3-c2ccc(CO)c(-c3cn(CC(F)(F)F)nc3C)n2)nn1` [Example 315, [6-[5-[(6-methylpyridazin-3-yl)amino]benzimidazol-1-yl]-2-[3-methyl-1-(2,2,2-trifluoroethyl)pyrazol-4-yl]-3-pyridyl]methanol], the IC50 on SIK1 was determined as 1090 nM; at SIK3 it was 2.9 nM; at SIK2, 7.3 nM.

With `Cc1ccc(Nc2ccc3c(c2)ncn3-c2ccc(CO)c(-c3cnn(CC(F)(F)F)c3C)n2)nn1` [Example 316, [6-[5-[(6-methylpyridazin-3-yl)amino]benzimidazol-1-yl]-2-[5-methyl-1-(2,2,2-trifluoroethyl)pyrazol-4-yl]-3-pyridyl]methanol], the IC50 is 975 nM at SIK1, 4.6 nM on SIK3 and 15.1 nM at SIK2.

For the compound `Cc1cc(C(F)F)nn1-c1nc(-n2cnc3cc(Nc4cc5c(nn4)CCOC5)ccc32)ccc1CO` [Example 317, [2-[3-(difluoromethyl)-5-methyl-pyrazol-1-yl]-6-[5-(7,8-dihydro-5H-pyrano[4,3-c]pyridazin-3-ylamino)benzimidazol-1-yl]-3-pyridyl]methanol], the IC50 at SIK1 worked out at 961 nM; on SIK3, 2.6 nM; on SIK2 it was 7.6 nM.

In the case of `Cc1cc(C(F)F)nn1-c1nc(-n2cnc3cc(N4C[C@H]5OCCN(C)[C@H]5C4)ccc32)ccc1CO` [Example 318, [6-[5-[(4aS,7aR)-4-methyl-2,3,4a,5,7,7a-hexahydropyrrolo[3,4-b][1,4]oxazin-6-yl]benzimidazol-1-yl]-2-[3-(difluoromethyl)-5-methyl-pyrazol-1-yl]-3-pyridyl]methanol], the IC50 was determined as 327 nM at SIK1, 65 nM at SIK3 and 50.1 nM at SIK2.

For `Cc1ccc(Nc2cc3ncn(-c4ccc(CO)c(-n5nc(C(F)F)cc5C)n4)c3cc2F)nn1` [Example 319, [2-[3-(difluoromethyl)-5-methyl-pyrazol-1-yl]-6-[6-fluoro-5-[(6-methylpyridazin-3-yl)amino]benzimidazol-1-yl]-3-pyridyl]methanol], the IC50 on SIK1 turned out to be 2120 nM; on SIK3, 7 nM; on SIK2, 6.7 nM.

For `Cc1ccc(Nc2ccc3c(c2)ncn3-c2ccc(C(C)O)c(N3CCOC(C(F)(F)F)C3)n2)nn1` (stereo not drawn) [Example 320, 1-[6-[5-[(6-methylpyridazin-3-yl)amino]benzimidazol-1-yl]-2-[2-(trifluoromethyl)morpholin-4-yl]-3-pyridyl]ethanol], the IC50 at SIK1 came to 4860 nM; at SIK3, 9.5 nM; at SIK2, 65.3 nM.

Take `Cc1ccc(Nc2ccc3c(c2)ncn3-c2ccc(C(C)O)c(N3CC4CC4(C#N)C3)n2)nn1` (stereo not drawn) [Example 321, 3-[3-(1-hydroxyethyl)-6-[5-[(6-methylpyridazin-3-yl)amino]benzimidazol-1-yl]-2-pyridyl]-3-azabicyclo[3.1.0]hexane-1-carbonitrile]: the IC50 was 1100 nM on SIK1, 3.5 nM at SIK3 and 19.2 nM at SIK2.

The record behind these values is patent US20240383875A1, “Benzimidazole Pyridine Derivatives” (Hoffmann-La Roche Inc., priority 2022, published 2024).
